Experimental data from PMC8963254, “Effects of Lysine N-ζ-Methylation in Ultrashort Tetrabasic Lipopeptides (UTBLPs) on the Potentiation of Rifampicin, Novobiocin, and Niclosamide in Gram-Negative Bacteria” (Antibiotics, 2022).
Where two headings read alike, the source gives them in different places. Non-standard residues stand in square brackets, D forms with d. Residues, ends and D or L forms follow the SMILES beside them. *: point of attachment. Lys(Me3) = C[N+](C)(C)CCCC[C@H](N)C(=O)O; Octanoyl = CCCCCCCC(=O)*

Tests used:
[1] = tested on: MRSE 61589; format: cell-based, Staphylococcus epidermidis; settings: 61589, 18 h
Method: (§1) The in vitro antibacterial activity of the UTBLPs was assessed against wild-type and clinically isolated bacterial strains. To obtain the MIC of the compounds, the microbroth dilution susceptibility assay was performed according to the Clinical and Laboratory Standards Institute (CLSI, Wayne, PA, USA) guidelines and as previously described. Briefly, the compounds at varying concentrations were incubated with bacterial inoculum (5 × 10^5 CFU/mL final concentration) at 37 °C for 18 h. Growth in the form of turbidity was confirmed using an EMax Plus microplate reader (Molecular Devices, San Jose, CA, USA) at 590 nm.

[2] = tested on: MSSE 81388; format: cell-based, Staphylococcus epidermidis; settings: 18 h
Method: as §1

[3] = tested on: E. faecium ATCC 27270; format: cell-based, Enterococcus faecium; settings: ATCC 27270, 18 h
Method: as §1

[4] = tested on: S. aureus ATCC 29213; format: cell-based, Staphylococcus aureus; settings: ATCC 29213, 18 h
Method: as §1

[5] = tested on: MRSA ATCC 33592; format: cell-based, Staphylococcus aureus; settings: ATCC 33592, 18 h
Method: as §1

[6] = tested on: E. faecium ATCC 27270; format: cell-based, Enterococcus faecium
Method: (§2) The synergy of the UTBLPs with various antibiotics was assessed using checkerboard assay as previously described. Briefly, the combination of antibiotic and OMP at varying concentrations were incubated with bacterial inoculum (5 × 10^5 CFU/mL final concentration) at 37 °C for 18 h. Growth in the form of turbidity was confirmed using an EMax Plus microplate reader (Molecular Devices, Union City, CA, USA) at 590 nm. Fractional inhibitory concentration index (FICI) was used to evaluate the interaction between the antibiotic and the OMP. FICI is the sum of the FIC of the antibiotic and the FIC of the OMP. The FIC value is calculated by dividing the MIC of the agents in combination by the MIC of the agent alone. FICI ≤ 0.5 is synergistic, 0.5 < x ≤ 4 is additive, and >4 is antagonistic.

[7] = tested on: K. pneumoniae 113250; format: cell-based, Klebsiella pneumoniae; settings: for MICUTBLP: UTBLP alone
Method: as §2

[8] = tested on: K. pneumoniae 113250; test: microbe, parasite or virus in culture; format: cell-based, Klebsiella pneumoniae; settings: 113250, 18 h
Summary of the method: (§3)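 Turbidity at 590 nm defined growth, from which the MIC was taken. Cultures at a final density of 5 × 10^5 CFU/mL were exposed to a range of compound levels at 37 °C for 18 h in a CLSI-based microdilution format.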

[9] = tested on: P. aeruginosa PA262-101856; test: microbe, parasite or virus in culture; format: cell-based, Pseudomonas aeruginosa; settings: PA262-101856, 18 h
Summary of the method: as §3

[10] = tested on: P. aeruginosa PA259-96196; test: microbe, parasite or virus in culture; format: cell-based, Pseudomonas aeruginosa; settings: PA259-96196, 18 h
Summary of the method: as §3

[11] = tested on: P. aeruginosa PA262-101856; format: cell-based, Pseudomonas aeruginosa; settings: for MICUTBLP: UTBLP alone
Summary of the method: (§4)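 Checkerboard synergy assay: antibiotic and OMP combined at varying concentrations with 5 × 10^5 CFU/mL inoculum (final), 37 °C, 18 h; growth read as turbidity at 590 nm. FICI = sum of FICs (MIC in combination / MIC alone); ≤0.5 synergistic, 0.5–4 additive, >4 antagonistic.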

[12] = tested on: P. aeruginosa PAO1; format: cell-based, Pseudomonas aeruginosa; settings: for MICUTBLP: UTBLP alone
Summary of the method: as §4

[13] = tested on: P. aeruginosa PA259-96196; format: cell-based, Pseudomonas aeruginosa; settings: for MICUTBLP: UTBLP alone
Summary of the method: as §4

[14] = tested on: E. faecalis ATCC 29212; format: cell-based, Enterococcus faecalis; settings: ATCC 29212, 18 h
Method: as §1

[15] = tested on: E. faecalis ATCC 29212; format: cell-based, Enterococcus faecalis
Method: as §2

[16] = tested on: E. cloacae 118564; format: cell-based, Enterobacter cloacae; settings: for MICUTBLP: UTBLP alone
Method: as §2

[17] = tested on: E. coli 94474; format: cell-based, Escherichia coli; settings: for MICUTBLP: UTBLP alone
Method: as §2

[18] = tested on: E. coli 94393; format: cell-based, Escherichia coli; settings: for MICUTBLP: UTBLP alone
Method: as §2

[19] = UTBLP alone, plate with chloramphenicol
[20] = UTBLP in combination with chloramphenicol
[21] = chloramphenicol in combination with the UTBLP
[22] = UTBLP in combination with novobiocin
[23] = UTBLP in combination with rifampicin
[24] = novobiocin in combination with the UTBLP
[25] = rifampicin in combination with the UTBLP

## CCCCCCCC(=O)NCCCC[C@H](NC(=O)CCCCCCC)C(=O)N[C@@H](CCCC[N+](C)(C)C)C(=O)N[C@@H](CCCC[N+](C)(C)C)C(=O)N[C@@H](CCCC[N+](C)(C)C)C(=O)N[C@@H](CCCC[N+](C)(C)C)C(N)=O [UTBLP 8] (Octanoyl-K(Octanoyl)[Lys(Me3)][Lys(Me3)][Lys(Me3)][Lys(Me3)]-NH2)
[1]
  MIC: 128 µg/mL
[2]
  MIC: 128 µg/mL
[3]
  MIC: 128 µg/mL
[4]
  MIC: >128 µg/mL
[5]
  MIC: >128 µg/mL
[6]; UTBLP + chloramphenicol
  Interpretation: Additive (0.5 < x ≤ 4 is additive)
[6]; [19]
  MICUTBLP: > 128 µg/mL
[6]; [20]
  MICUTBLP [MICcombo]: 0.25 µg/mL
[6]; [21]
  MICchloramphenicol [MICcombo]: 4 µg/mL
[7]; UTBLP + novobiocin
  Interpretation: Synergy (FICI ≤ 0.5 is synergistic)
[7]; UTBLP + rifampicin
  Interpretation: Synergy (FICI ≤ 0.5 is synergistic)
[7]; plate with novobiocin
  MICUTBLP: > 128 µg/mL
[7]; plate with rifampicin
  MICUTBLP: > 128 µg/mL
[7]; [22]
  MICUTBLP [MICcombo]: 16 µg/mL
[7]; [23]
  MICUTBLP [MICcombo]: 16 µg/mL
[7]; [24]
  MICantibiotic [MICcombo]: 32 µg/mL
[7]; [25]
  MICantibiotic [MICcombo]: 4 µg/mL
[8]
  MIC: > 128 µg/mL
[9]
  MIC: > 128 µg/mL
[10]
  MIC: > 128 µg/mL
[11]; UTBLP + novobiocin
  Interpretation: Additive (0.5 < x ≤ 4 is additive)
[11]; UTBLP + rifampicin
  Interpretation: Additive (0.5 < x ≤ 4 is additive)
[11]; plate with novobiocin
  MICUTBLP: > 128 µg/mL
[11]; plate with rifampicin
  MICUTBLP: > 128 µg/mL
[11]; [22]
  MICUTBLP [MICcombo]: 16 µg/mL
[11]; [23]
  MICUTBLP [MICcombo]: 16 µg/mL
[11]; [24]
  MICantibiotic [MICcombo]: 1024 µg/mL
[11]; [25]
  MICantibiotic [MICcombo]: 512 µg/mL
[12]; UTBLP + chloramphenicol
  Interpretation: Additive (0.5 < x ≤ 4 is additive)
[12]; UTBLP + niclosamide
  Interpretation: Additive (0.5 < x ≤ 4 is additive)
[12]; UTBLP + novobiocin
  Interpretation: Additive (0.5 < x ≤ 4 is additive)
[12]; UTBLP + rifampicin
  Interpretation: Additive (0.5 < x ≤ 4 is additive)
[12]; plate with chloramphenicol
  MICUTBLP: > 128 µg/mL
[12]; plate with niclosamide
  MICUTBLP: > 128 µg/mL
[12]; plate with novobiocin
  MICUTBLP: > 128 µg/mL
[12]; plate with rifampicin
  MICUTBLP: > 128 µg/mL
[12]; [20]
  MICUTBLP [MICcombo]: 0.25 µg/mL
[12]; UTBLP in combination with niclosamide
  MICUTBLP [MICcombo]: 0.25 µg/mL
[12]; [22]
  MICUTBLP [MICcombo]: 0.25 µg/mL
[12]; [23]
  MICUTBLP [MICcombo]: 0.25 µg/mL
[12]; [21]
  MICantibiotic [MICcombo]: 16 µg/mL
[12]; niclosamide in combination with the UTBLP
  MICantibiotic [MICcombo]: 1024 µg/mL
[12]; [24]
  MICantibiotic [MICcombo]: 512 µg/mL
[12]; [25]
  MICantibiotic [MICcombo]: 16 µg/mL
[13]; UTBLP + novobiocin
  Interpretation: Additive (0.5 < x ≤ 4 is additive)
[13]; UTBLP + rifampicin
  Interpretation: Additive (0.5 < x ≤ 4 is additive)
[13]; plate with novobiocin
  MICUTBLP: > 128 µg/mL
[13]; plate with rifampicin
  MICUTBLP: > 128 µg/mL
[13]; [22]
  MICUTBLP [MICcombo]: 16 µg/mL
[13]; [23]
  MICUTBLP [MICcombo]: 16 µg/mL
[13]; [24]
  MICantibiotic [MICcombo]: 1024 µg/mL
[13]; [25]
  MICantibiotic [MICcombo]: 16 µg/mL
[14]
  MIC: 128 µg/mL
[15]; UTBLP + chloramphenicol
  Interpretation: Additive (0.5 < x ≤ 4 is additive)
[15]; [19]
  MICUTBLP: 128 µg/mL
[15]; [20]
  MICUTBLP [MICcombo]: 16 µg/mL
[15]; [21]
  MICchloramphenicol [MICcombo]: 4 µg/mL
[16]; UTBLP + novobiocin
  Interpretation: Synergy (FICI ≤ 0.5 is synergistic)
[16]; UTBLP + rifampicin
  Interpretation: Additive (0.5 < x ≤ 4 is additive)
[16]; plate with novobiocin
  MICUTBLP: > 128 µg/mL
[16]; plate with rifampicin
  MICUTBLP: > 128 µg/mL
[16]; [22]
  MICUTBLP [MICcombo]: 16 µg/mL
[16]; [23]
  MICUTBLP [MICcombo]: 16 µg/mL
[16]; [24]
  MICantibiotic [MICcombo]: 32 µg/mL
[16]; [25]
  MICantibiotic [MICcombo]: 4 µg/mL
[17]; UTBLP + novobiocin
  Interpretation: Synergy (FICI ≤ 0.5 is synergistic)
[17]; UTBLP + rifampicin
  Interpretation: Additive (0.5 < x ≤ 4 is additive)
[17]; plate with novobiocin
  MICUTBLP: > 128 µg/mL
[17]; plate with rifampicin
  MICUTBLP: > 128 µg/mL
[17]; [22]
  MICUTBLP [MICcombo]: 8 µg/mL
[17]; [23]
  MICUTBLP [MICcombo]: 16 µg/mL
[17]; [24]
  MICantibiotic [MICcombo]: 64 µg/mL
[17]; [25]
  MICantibiotic [MICcombo]: 4 µg/mL
[18]; UTBLP + novobiocin
  Interpretation: Synergy (FICI ≤ 0.5 is synergistic)
[18]; UTBLP + rifampicin
  Interpretation: Additive (0.5 < x ≤ 4 is additive)
[18]; plate with novobiocin
  MICUTBLP: 128 µg/mL
[18]; plate with rifampicin
  MICUTBLP: 128 µg/mL
[18]; [22]
  MICUTBLP [MICcombo]: 16 µg/mL
[18]; [23]
  MICUTBLP [MICcombo]: 16 µg/mL
[18]; [24]
  MICantibiotic [MICcombo]: 16 µg/mL
